The subject of data set [1] is T. brucei. As to conditions: cited from earlier work.
Data set [2] deals with malarial parasite. The arrangement: method as in PMID 21157686. As to conditions: cited from earlier work.
Data set [3] has as its system T. b. rhodesiense STIB 900 bloodstream forms. The data set is described as follows: Anti-trypanosomal activity on T. brucei rhodesiense (Alamar blue). Format: cell-based, Trypanosoma brucei rhodesiense. As to the method: Minimum Essential Medium with Earle’s salts (50.0 µL) supplemented with 0.2 mM 2-mercaptoethanol, 1.0 mM Na pyruvate and 15% heat-inactivated horse serum was added to each well of a 96-well microtiter plate. Serial drug dilutions of eleven 3-fold steps covering a range from 100 to 0.002 µM were prepared. Then 10^4 bloodstream forms of T. b. rhodesiense STIB 900 in 50.0 µL of medium were added to each well and the plate incubated at 37 °C under a 5% CO2 atmosphere for 72 h. Alamar blue solution (10.0 µL of a solution of 12.5 mg resazurin dissolved in 100 mL distilled water) were then added to each well and incubation continued for a further 2–4 h. The plate was then read in a Spectramax Gemini XS microplate fluorometer (Molecular Devices Corporation, Sunnyvale, CA, USA) using an excitation wavelength of 536 nm and emission wavelength of 588 nm. Fluorescence development was measured and expressed as percentage of the control. Data were transferred into the graphic programme Softmax Pro (Molecular Devices), which calculated IC50 values.
For orientation: Resazurin is reduced to fluorescent resorufin, in cell work by metabolically active cells.

The test system of data set [4] is P. falciparum NF54 strain. Nature of the data set: Antiplasmodial activity, [3H]-hypoxanthine incorporation assay. Format: cell-based, Plasmodium falciparum. The procedure:
Antiplasmodial activity was determined using the NF54 strain of P. falciparum (drug sensitive). A modification of the [^3H]-hypoxanthine incorporation assay was used. […] After 48 h of incubation at 37 °C in a reduced oxygen atmosphere, 0.5 μCi ^3H-hypoxanthine was added to each well. Cultures were incubated for a further 24 h before they were harvested onto glass-fiber filters and washed with distilled water. The radioactivity was counted using a Betaplate™ liquid scintillation counter (Wallac, Zurich, Switzerland). […] From the sigmoidal inhibition curves IC50 values were calculated. Assays were run in duplicate and repeated once.

Data set [5] is described as follows: Cytotoxicity assay against L6 cells. In kind it is cell-based. As to conditions: rat skeletal myoblast L6, mean ± margin of deviation of two independent determinations. As to the method:
Cytotoxicity was assessed using rat skeletal myoblasts (L6 cells) and a similar protocol as used for the Tbr assay. […] All following steps were according to the T. b. rhodesiense protocol (see Section 3.3. above).

Data set [6] relates to L. donovani amastigotes (strain MHOM/ET/67/L82). Nature of the data set: Antileishmanial activity on L. donovani (axenic amastigote assay). In kind it is cell-based, Leishmania donovani. As to conditions: for IC50: 72 h, axenic amastigotes, mean ± margin of deviation of two independent determinations. The procedure:
Fifty µL of SM medium at pH 5.4 supplemented with 10% heat-inactivated FBS, was added to each well of a 96-well microtiter plate. Serial drug dilutions were prepared covering a range from 100.0 to 0.002 µM. Then 10^5 axenically grown L. donovani amastigotes (strain MHOM/ET/67/L82) in 50.0 µL medium were added to each well and the plate incubated at 37 °C under a 5% CO2 atmosphere for 72 h. Resazurin solution (10.0 µL, 12.5 mg resazurin dissolved in 100 mL distilled water) were then added to each well and incubation continued for a further 2–4 h. The plate was then read in a Spectramax Gemini XS microplate fluorometer (Molecular Devices, Sunnyvale, CA, USA) using an excitation wavelength of 536 nm and emission wavelength of 588 nm. Fluorescence development was measured and expressed as percentage of the control. Data were transferred into the graphic programme Softmax Pro (Molecular Devices) which calculated IC50 values from the sigmoidal inhibition curves.

[7] abbreviates: 72 h; mean ± margin of deviation of two independent determinations; read-out: IC50 Values T. b. rhodesiense.
The mark [8] stands for this setting: Trypanosoma brucei, 72 h; mean ± margin of deviation of two independent determinations; read-out: IC50 Values T. b. rhodesiense.
Setting [9] is: Plasmodium falciparum, NF54, NF54 strain, mean ± margin of deviation of two independent determinations, read-out: IC50 Values P. falciparum.
Setting [10] is: L6 cells (rat skeletal myoblasts).
[11] abbreviates: Plasmodium falciparum, NF54, read-out: IC50 Values P. falciparum.

The term IC50 denotes the point on the concentration scale where inhibition reaches its midpoint.

“And” between values parts separate entries of the source, which are not always exact repeats. Equal values may be shown once. Read-outs that look alike come from different tables or passages of the source.

In the case of `C/C1=C\CC/C(C)=C/C[C@](O)(C(C)C)CC/C(C)=C/CC1` [serratol, reference compound], the “In vitro activity against T. brucei (in words)” value in data set [1] was “also showed such activity”. In addition, the “Activity against the malarial parasite (in words)” value in data set [2] was “some activity”.
For `COC(=O)C(C)C1=CC=C(C)CCC2OC2(C)CCC=C(C)CC1` (stereo not drawn) [Compound 1, 7S,8S-epoxy-1,3,11-cembratriene-16-oic methyl ester], the “Activity against bloodstream forms of T. brucei (in words)” value (“Activity against bloodstream forms” below) in data set [3] is “showed activity”. For the same compound, the IC50 in data set [3] (setting [7]) was 1 ± 0.19 µM; in data set [3] (setting [8]), ≤ 1 µM; in data set [4] (setting [9]), 22.95 ± 0.15 µM; in data set [5] (setting [10]), > 54 µM.
`CCN(CC)CCCC(C)Nc1ccnc2cc(Cl)ccc12` (centres unmarked) [Chloroquine, reference compound]: the concentration for half-maximal inhibition (IC50) in data set [4] (setting [11]) turned out to be 0.004 µM; in data set [5] it was 120 ± 27.5 µM.
Consider `Nc1nc(N)nc(Nc2ccc([As]3SCC(CO)S3)cc2)n1` (centres unmarked) [Melarsoprol, reference compound], for which the IC50 in data set [3] (Trypanosoma brucei, 72 h, read-out: IC50 Values T. b. rhodesiense) turned out to be 0.005 µM; in data set [5], 28.9 ± 9.3 µM.
With `C/C1=C\[C@@H]2O[C@@H](O)[C@@]3(C)O[C@@]23CC/C(C)=C/CC[C@@]2(C)O[C@H]2CC1` [Compound 10, laevigatol A], the IC50 was > 20 µM in data set [3] (setting [8]); < 5 µM and 3.02 µM in data set [4] (NF54 strain, mean ± margin of deviation of two independent determinations, read-out: IC50 Values P. falciparum); 3 µM in data set [4] (setting [9]); 28.8 ± 10.3 µM in data set [5] (setting [10]). Moreover, in data set [4] (L6 vs Pf), the “Selectivity index SI = IC50(L6)/IC50(parasite), P. falciparum” value is recorded as 9.52.
Turning to `C/C1=C\[C@@H]2O[C@@H](O)[C@@]3(C)O[C@@]23CC/C(C)=C/CC[C@](C)(O)[C@H](O)CC1` [Compound 7, lobocrasol B], in data set [6], the “Antileishmanial activity (in words)” value is “devoid of antileishmanial activity”.
`C=C1CCC2=C(C)C(=O)OC2C=C(C)CCC(O)C2(C)CCC1O2` (centres unmarked) [Compound 15, Crassumol G]: the “Activity against bloodstream forms” value in data set [3] was “showed activity”. For the same compound, the IC50 came out at 12.2 ± 0.1 µM in data set [3] (setting [8]), 7.57 ± 0.59 µM in data set [4] (setting [9]) and 33.2 ± 13.5 µM in data set [5] (setting [10]).
Take `C/C1=C\[C@@H]2O[C@@H](O)[C@@]3(C)O[C@@]23CC/C(C)=C/CC[C@](C)(O)[C@@H](O)CC1` [Compound 6, Lobocrasol A]: the “Activity against bloodstream forms” value in data set [3] was “showed activity”. Moreover, the IC50 in data set [3] (setting [8]) is 9.97 ± 0.64 µM; in data set [6] (Leishmania donovani) it was < 0.2 µM; in data set [6], 0.18 ± 0.02 µM; in data set [5] (setting [10]), 56 ± 3.65 µM. Further, the “Antileishmanial activity (in words)” value in data set [6] was “strongly and selectively active”.
`C=C1CO[C@H]2/C=C(\C)CC[C@@H](O)[C@@](C)(O)C/C=C/[C@](C)(O)CC[C@@]12O` [Compound 8, lobocrasol C]: the “Activity against bloodstream forms” value in data set [3] is listed as “showed activity”. For the same compound, the 50% inhibitory concentration (IC50) in data set [3] (setting [8]) is 9.37 ± 0.74 µM; in data set [6] (Leishmania donovani) it was < 0.2 µM; in data set [6] it was 0.17 ± 0.05 µM; in data set [4] (setting [9]) it was 7.37 ± 0.35 µM; in data set [5] (setting [10]) it was 40.5 ± 7.75 µM. The “Antileishmanial activity (in words)” value in data set [6] is “strongly and selectively active”.
For `C=C1CO[C@H]2/C=C(\C)CC[C@@H]3O[C@]3(C)CC/C=C(\C)CC[C@@]12O` [Compound 11, laevigatol B], the “In vitro activity against T. brucei (in words)” value in data set [1] is on record as “active”.
For `CC1=C2CCC3(C)OC2(OC1)C1C3CCC(C)(O)C2CCC1(C)O2` (centres unmarked) [Compound 12, crassumol D], the “Activity against bloodstream forms” value in data set [3] was “showed activity”. In addition, the IC50 in data set [3] (setting [7]) was 0.61 ± 0.01 µM; in data set [3] (setting [8]), ≤ 1 µM; in data set [5] (setting [10]), 58.7 ± 1 µM. The “Selectivity index, times more active against Tbr than against L6 cells” value (shortened to “Selectivity index, times more active”) in data set [3] (L6 vs Tbr) came to 96.
For `CC1=CCCC(C)(O)C=CC(C(C)C)CCC(C)=CCC1` [Compound 2, (1R,4R,2E,7E,11E)-cembra-2,7,11-trien-4-ol], in data set [3], the “Activity against bloodstream forms” value is “showed activity”. Besides, the IC50 in data set [3] (setting [7]) was 1.14 ± 0.5 µM; in data set [3] (setting [8]), ≤ 1 µM; in data set [4] (setting [9]), 14.8 ± 0.9 µM; in data set [5] (setting [10]), 49.4 ± 5.2 µM. Moreover, in data set [3] (L6 vs Tbr), the “Selectivity index, times more active” value turned out to be 43.
On to `C=C(C)C1CCC23OC2C(CC(C)(O)C=C2C=C(C(=O)OC)C(OC)(C1)O2)OC3=O` (centres unmarked) [Compound 18, Sinumaximol C], for which, in data set [3], the “Activity against bloodstream forms” value is “showed activity”. In addition, the values for the IC50 in data set [3] (setting [8]) and in data set [5] (setting [10]) were 9.88 ± 1.93 µM and 28.7 ± 9.95 µM, respectively.
Regarding `C=C(C)C1CC(=O)CC2OC(C)(CC2=O)CC2C=C(C(=O)O2)C(OC)C1` (stereo not drawn) [Compound 21, 13-Epi-scabrolide C], the “Activity against bloodstream forms” value in data set [3] was “showed activity”. For the same compound, the IC50 was 11.8 ± 4.46 µM in data set [3] (setting [8]) and 47.5 ± 6 µM in data set [5] (setting [10]).
As for `C=C(C)C1CC=C(C(=O)OC)CC(=O)CC(C)(O)C(O)C2=CC(C(=O)OC)=C(C1)O2` (centres unmarked) [Compound 17, Sinumaximol A], the figures for the IC50 in data set [3] (Trypanosoma brucei; 72 h; mean ± margin of deviation of two independent determinations; read-out: IC50 Values T. b. rhodesiense), in data set [4] (setting [11]) and in data set [5] were > 20 µM, 7.2 ± 0.71 µM and 45 ± 2.9 µM, respectively.
As for `C=C1CCC(C(C)C)C=CC(C)(O)CC=CC(C)(O)CCC1O` [Compound 16, (1S,2E,4S,6E,8S,11S)-2,6,12(20)-cembrantriene-4,8,11-triol], the “Activity against bloodstream forms” value in data set [3] is “showed activity”. In addition, the half-maximal inhibitory concentration (IC50) in data set [3] (setting [7]) is 0.65 ± 0.01 µM; in data set [3] (setting [8]), ≤ 1 µM; in data set [5] (setting [10]) it was 48.6 ± 3.45 µM. In addition, the “Selectivity index, times more active” value in data set [3] (L6 vs Tbr) worked out at 75.
For the compound `CCCCCCCCCCCCCCCCOP(=O)([O-])OCC[N+](C)(C)C` [Miltefosine, reference compound], the IC50 in data set [6] (Leishmania donovani) came out at 0.14 ± 0.05 µM; in data set [5] (setting [10]) it was 143 ± 35.3 µM.
Regarding `C=C1CCC2(O)C(=C)COC2C=C(C)CCC(O)C2(C)CCC1O2` (centres unmarked) [Compound 13, crassumol E], the “Activity against bloodstream forms” value in data set [3] is “showed activity”. For the same compound, the IC50 is 0.72 ± 0.04 µM in data set [3] (setting [7]), ≤ 1 µM in data set [3] (setting [8]), 7.43 ± 0.86 µM in data set [4] (setting [9]) and 43 ± 2.6 µM in data set [5] (setting [10]). In addition, the “Selectivity index, times more active” value in data set [3] (L6 vs Tbr) is 60.

These data come from article PMC6332397, “Anti-Protozoal Activities of Cembrane-Type Diterpenes from Vietnamese Soft Corals” (Molecules, 2015).
